Assays:
male C57BL/6 mice = assay: Inhibition of icilin induced jumping in mice; format: in vivo; settings: given 1 hour before icilin (i.p. 20 mg/kg), jumps counted 10 minutes post-icilin
Description: Icilin Biochemical Challenge Models
Inhibition of Icilin Induced Jumping in Mice
Example compounds at doses ranging from 0.01 to 10 mg/kg were administered to male C57BL/6 mice (18-25 g, Taconic, n=10/treatment) 1 hour before icilin to assess the ability to block the spontaneous jumps induced by icilin (i.p. suspended in 100% PEG400 at 20 mg/kg, 5 mL/kg). The total number of jumps was recorded during the 10 minutes post-icilin administration based on the number of photocell beam breaks from the vertical array of open field boxes (Kinder Scientific) while movement of the mice was restricted within a clear Plexiglas® cylinder 9.5 cm diameter×30 cm height.

human TRPM8 = molecular target: T1, human TRPM8 (Homo sapiens, UniProt Q7Z2W7); assay: Luminescence readout assay for measuring intracellular calcium (aequorin), hTRPM8 antagonism; format: cell-based; settings: CHO cell line expressing human TRPM8 and aequorin; activation by icilin, L-menthol or cold buffer (table does not say which)
T1 construct: expressed in transfected cells; host or cells: Chinese hamster ovary (CHO) cells, T-REx tetracycline-inducible expression system (Invitrogen), co-transfected with pcDNA3.1 jellyfish aequorin
T1 sequence (Q7Z2W7 whole entry): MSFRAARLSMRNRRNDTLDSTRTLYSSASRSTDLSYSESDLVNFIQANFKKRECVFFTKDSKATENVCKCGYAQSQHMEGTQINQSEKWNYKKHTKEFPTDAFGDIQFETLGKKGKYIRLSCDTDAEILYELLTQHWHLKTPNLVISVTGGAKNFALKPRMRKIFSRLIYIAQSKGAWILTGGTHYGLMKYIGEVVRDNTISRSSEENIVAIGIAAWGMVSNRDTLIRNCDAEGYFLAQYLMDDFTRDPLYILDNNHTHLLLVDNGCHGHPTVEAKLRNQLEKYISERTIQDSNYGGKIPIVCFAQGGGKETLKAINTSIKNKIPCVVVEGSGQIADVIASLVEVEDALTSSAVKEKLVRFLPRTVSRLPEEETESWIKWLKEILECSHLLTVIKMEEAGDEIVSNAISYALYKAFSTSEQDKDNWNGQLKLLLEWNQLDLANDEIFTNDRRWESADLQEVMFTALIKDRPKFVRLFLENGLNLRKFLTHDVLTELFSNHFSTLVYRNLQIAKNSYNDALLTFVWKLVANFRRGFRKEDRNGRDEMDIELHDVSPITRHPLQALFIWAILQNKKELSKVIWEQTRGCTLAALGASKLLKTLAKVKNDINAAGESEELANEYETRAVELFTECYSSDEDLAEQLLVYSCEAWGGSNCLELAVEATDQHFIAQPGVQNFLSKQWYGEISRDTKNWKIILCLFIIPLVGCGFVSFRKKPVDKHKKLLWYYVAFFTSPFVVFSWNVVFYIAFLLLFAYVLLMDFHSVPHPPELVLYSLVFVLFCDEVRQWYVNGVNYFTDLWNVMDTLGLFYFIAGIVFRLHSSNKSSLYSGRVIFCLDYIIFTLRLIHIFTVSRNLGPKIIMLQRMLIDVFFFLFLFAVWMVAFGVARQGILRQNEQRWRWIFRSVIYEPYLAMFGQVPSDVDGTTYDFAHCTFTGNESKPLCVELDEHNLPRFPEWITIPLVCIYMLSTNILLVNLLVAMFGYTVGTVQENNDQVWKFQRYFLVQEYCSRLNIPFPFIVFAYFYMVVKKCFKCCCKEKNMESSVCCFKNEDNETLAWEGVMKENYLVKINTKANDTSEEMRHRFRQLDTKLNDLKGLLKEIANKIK

| Compound | IC50 (human TRPM8) [nM] | % Inhibition of Mouse Jumping (male C57BL/6 mice; dose 10 mg/kg) [%] | % Inhibition of Mouse Jumping (male C57BL/6 mice; dose 3 mg/kg) [%] |
| --- | --- | --- | --- |
| C[C@H](NC(=O)N[C@@H](c1ccc(C(F)(F)F)c(F)c1)c1ncccc1C(F)(F)F)C(F)(F)F [Example 151, 1-((S)-(3-fluoro-4-(trifluoro-methyl)-phenyl)(3-(trifluoro-methyl)-pyridin-2-yl)-methyl)-3-((S)-1,1,1-trifluoro-propan-2-yl)-urea (2,2,2-trifluoro-acetate)] | 39 | – | 30 |
| CC1(C)C[C@H]1c1cccnc1[C@@H](NC(=O)Nc1cccnc1)c1ccc(C(F)(F)F)cc1 [Example 61, 1-((S)-(3-((R)-2,2-dimethylcyclopropyl)-pyridin-2-yl)-(4-(trifluoro-methyl)-phenyl)-methyl)-3-(pyridin-3-yl)-urea] | 62 | 90 | – |
| CC#Cc1cccnc1[C@@H](NC(=O)Nc1cccnc1)c1ccc(C(F)(F)F)cc1 [Example 51, (S)-1-((3-(prop-1-yn-1-yl)pyridin-2-yl)(4-(trifluoro-methyl)-phenyl)-methyl)-3-(pyridin-3-yl)-urea] | 37 | 76 | – |
| O=C(NCc1ccc(Cl)c(Cl)c1)N[C@@H](c1ccc(C(F)(F)F)cc1)c1ncccc1C(F)(F)F [Example 184, (S)-1-(3,4-dichlorobenzyl)-3-((4-(trifluoro-methyl)phenyl) (3-(trifluoro-methyl)pyridin-2-yl)methyl)urea (2,2,2-trifluoro-acetate)] | 583 | – | – |
| O=C(Nc1cccnc1)N[C@@H](c1ccc(C(F)(F)F)c(F)c1)c1ncccc1C(F)(F)F [Example 1, (S)-1-((3-Fluoro-4-(trifluoromethyl)phenyl)(3-(trifluoromethyl)-pyridin-2-yl)methyl)-3-(pyridin-3-yl)urea bis(2,2,2-trifluoroacetate)] | 23 | 75 | – |
| O=C(Nc1ccccc1)N[C@@H](c1ccc(C(F)(F)F)cc1)c1ncccc1C(F)(F)F [Example 31, (S)-1-phenyl-3-((4-(trifluoro-methyl)-phenyl)(3-(trifluoro-methyl)-pyridin-2-yl)-methyl)urea] | 81 | – | – |

Further molecules by falling IC50 (human TRPM8), results first:

| IC50 (human TRPM8) [nM] | Compound | % Inhibition of Mouse Jumping (male C57BL/6 mice; dose 10 mg/kg) [%] | % Inhibition of Mouse Jumping (male C57BL/6 mice; dose 3 mg/kg) [%] |
| --- | --- | --- | --- |
| 23 | O=C(Nc1cccnc1)N[C@@H](c1ccc(C(F)(F)F)cc1)c1ncccc1C(F)(F)F [Example 44, (S)-1-(pyridin-3-yl)-3-((4-(trifluoro-methyl)-phenyl)(3-(trifluoro-methyl)-pyridin-2-yl)-methyl)urea] | 74 | – |
| 17 | O=C(Nc1cccnc1)N[C@@H](c1ccc(C(F)(F)F)c(F)c1)c1ncccc1F [Example 29, (S)-1-((3-fluoro-4-(trifluoro-methyl)-phenyl)(3-fluoropyridin-2-yl)methyl)-3-(pyridin-3-yl)urea] | 96 | – |
| 7 | O=C(Nc1cccnc1)N[C@@H](c1ccc(OC(F)(F)F)c(F)c1)c1ncccc1F [Example 188, (S)-1-((3-fluoro-4-(trifluoro-methoxy)phenyl) (3-fluoropyridin-2-yl)methyl)-3-(pyridin-3-yl) urea] | – | – |
